Data set [1] is described as follows: Dose escalation, MTD/DLT and adverse events of SNX-5422 with carboplatin and paclitaxel in patients. The settings on record: SNX-5422 qod in combination with carboplatin (AUC 5) and paclitaxel (175 mg/m^2). The class given is in vivo, human. The text has this: The performed dosing schedule is disclosed in FIG. 1. SNX-5422 dose was escalated as follows.
The conditions of data set [2]: every other day (qod), previously-established; cited from earlier work.

In the case of `CC1(C)CC(=O)c2c(C(F)(F)F)nn(-c3ccc(C(N)=O)c(N[C@H]4CC[C@H](OC(=O)CN)CC4)c3)c2C1` [SNX-5422, trans-4-{(2-(aminocarbonyl)-5-[6,6-dimethyl-4-oxo-3-(trifluoromethyl)-4,5,6,7-tetrahydro-1H-indazol-1-yl]phenyl}amino)cyclohexyl glycinate], the “Maximum Tolerated Dose” value in data set [1] turned out to be 100 mg/m^2. The “single agent MTD” value in data set [2] is recorded as 100 mg/m^2.

Values taken from US20190134003A1, “COMBINATION THERAPIES USING INDAZOLYLBENZAMIDE DERIVATIVES FOR THE TREATMENT OF CANCER” (ESANEX, INC., priority 2016, published 2019).
